Assay results reported in article PMC6337588, “Multi-Target Cinnamic Acids for Oxidative Stress and Inflammation: Design, Synthesis, Biological Evaluation and Modeling Studies” (Molecules, 2018).

test system: not listed separately; experiment: Experimental lipophilicity as RM values by reversed phase TLC (RPTLC); type: physicochemical; details: methanol/water 77/23 with 0.1% acetic acid, 24 °C, average of at least 5 measurements
Excerpt: Lipophilicity is a physicochemical property correlated with the biological activity. Lipophilicity influences ligand-target binding interactions, solubility, absorption, distribution, bioavailability, metabolism and elimination (ADME) and toxicological outcomes. The lipophilicity of the novel cinnamic acids was experimentally measured as RM values using a reverse phase thin layer chromatography (RPTLC) method. This is acknowledged as a reliable, fast and convenient approach for expressing lipophilicity (Table 1). RM relates to the thermodynamic Rf value in a logarithmic form. Bate-Smith and Westall firstly determined lipophilicity as RM values in 1950 [31]. The Br-substituted derivatives 1i–7i are more lipophilic than the OH-substituted ones 1ii–7ii which can be easily explained by their structural characteristics.
Reversed phase TLC (RPTLC) was performed on silica gel plates impregnated with 55% (v/v) liquid paraffin in light petroleum ether. The mobile phase was a methanol/water mixture (77/23, v/v) containing 0.1% of acetic acid. The plates were developed in closed chromatography tanks saturated with the mobile phase at 24 °C. Spots were detected under UV light. RM values were determined from the corresponding Rf values (from five individual measurements) using the equation RM = log[(1/Rf) − 1] [17, 18, 28].

| RM (±SD) | Structure (SMILES) |
| --- | --- |
| 0.605 (0.016) | O=C(O)C(=Cc1ccc(OCc2ccc(Br)cc2)cc1)c1ccc(Br)cc1 [Compound 2i, 3-(4-((4-Bromobenzyl)oxy)phenyl)-2-(4-bromophenyl)acrylic acid] |
| 0.480 (0.035) | CC(C)(C)c1cc(C=C(C(=O)O)c2ccc(Br)cc2)c(O)c(C(C)(C)C)c1 [Compound 6i, 2-(4-Bromophenyl)-3-(3,5-di-tert-butyl-2-hydroxyphenyl)acrylic acid] |

molecular target: T1, soybean lipoxygenase (Glycine max, UniProt P08170); experiment: Soybean lipoxygenase inhibition in vitro; type: biochemical; details: sodium linoleate 0.1 mM, 234 nm, read-out: LOX IC50
T1 construct: purchased Sigma Chemical, Co. (St. Louis)
T1 sequence (P08170 1-839): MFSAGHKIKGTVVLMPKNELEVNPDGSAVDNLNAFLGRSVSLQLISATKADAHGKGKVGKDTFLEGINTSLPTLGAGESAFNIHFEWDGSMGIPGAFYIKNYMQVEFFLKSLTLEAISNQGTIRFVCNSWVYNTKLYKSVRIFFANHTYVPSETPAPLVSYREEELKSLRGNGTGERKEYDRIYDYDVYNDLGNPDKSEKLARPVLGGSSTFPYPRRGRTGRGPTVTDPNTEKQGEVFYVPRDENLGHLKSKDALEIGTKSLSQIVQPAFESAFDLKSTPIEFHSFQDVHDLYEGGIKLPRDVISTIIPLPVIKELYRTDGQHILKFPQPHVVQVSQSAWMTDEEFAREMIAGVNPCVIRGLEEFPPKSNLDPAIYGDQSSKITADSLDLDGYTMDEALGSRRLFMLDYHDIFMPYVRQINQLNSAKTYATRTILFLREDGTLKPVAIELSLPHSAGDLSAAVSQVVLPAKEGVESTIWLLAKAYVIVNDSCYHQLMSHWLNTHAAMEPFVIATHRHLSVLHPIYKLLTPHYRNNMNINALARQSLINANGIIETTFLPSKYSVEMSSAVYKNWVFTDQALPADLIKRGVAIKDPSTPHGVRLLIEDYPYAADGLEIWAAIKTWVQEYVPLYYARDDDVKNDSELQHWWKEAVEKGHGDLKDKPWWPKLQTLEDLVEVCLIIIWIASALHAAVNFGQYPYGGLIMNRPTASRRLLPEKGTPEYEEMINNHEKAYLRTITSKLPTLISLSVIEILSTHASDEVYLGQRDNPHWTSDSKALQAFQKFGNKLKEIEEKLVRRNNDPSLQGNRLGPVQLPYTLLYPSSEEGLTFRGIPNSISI
Experimental: Many research groups have used readily obtainable soybean lipoxygenase, which is a homologue of mammalian lipoxygenase and well studied. Due to its availability and its well-characterised crystal structure, soybean LOX was selected to be used in this study.
In vitro study was evaluated as reported previously by our group. The tested compounds were incubated at room temperature with sodium linoleate (0.1 mM) and 0.2 mL of enzyme solution (1/9 × 104 w/v in saline). The method was based to the conversion of sodium linoleate to 13-hydroperoxylinoleic acid at 234 nm. […] In order to determine the IC50 values different concentrations were used.

| IC50 [µM] | Structure (SMILES) |
| --- | --- |
| 76 | O=C(O)C(=Cc1ccc(OCc2ccc(Br)cc2)cc1)c1ccc(Br)cc1 [Compound 2i, 3-(4-((4-Bromobenzyl)oxy)phenyl)-2-(4-bromophenyl)acrylic acid] |
| 60 | CC(C)(C)c1cc(C=C(C(=O)O)c2ccc(Br)cc2)c(O)c(C(C)(C)C)c1 [Compound 6i, 2-(4-Bromophenyl)-3-(3,5-di-tert-butyl-2-hydroxyphenyl)acrylic acid] |

test system: not listed separately; experiment: Reducing activity of the stable radical DPPH; type: biochemical; details: 50 µM, 20 min
Experimental: The substituted acids were monitored for the antioxidant activity by the use of the stable 2,2-diphenyl-1-picrylhydrazyl radical (DPPH) at concentration 50 µM and 100 µM after 20 and 60 min (Table 1). In this assay the DPPH radical is reduced by single electron transfer from the antioxidant. Strong antioxidants are the phenoxide anions from phenolic compounds like catechol and derivatives, such as nordihydroguaretic acid (NDGA), the reference compound. The compounds presented medium reducing abilities from 29–61%, due to steric reasons; small differences were found among the compounds with time and concentration. 4-Br-substituted-3 phenyl acetic acid derivatives (Series I) are equipotent to 4-OH-substituted-3 phenyl acetic acid derivatives (Series II). No differences were observed between 4i and 5i and 4ii and 5ii.
To a solution of DPPH in absolute ethanol an equal volume of the compounds dissolved in DMSO was added. The final concentrations of the measured solutions of the novel acids were 50 and 100 µM starting from a stock solution (10 mM) in DMSO. The absorbance was recorded at 517 nm, after 20 and 60 min at room temperature (Table 1).

| Structure (SMILES) | RA% 50 µM 20 min [%] |
| --- | --- |
| O=C(O)C(=Cc1ccc(OCc2ccc(Br)cc2)cc1)c1ccc(Br)cc1 [Compound 2i, 3-(4-((4-Bromobenzyl)oxy)phenyl)-2-(4-bromophenyl)acrylic acid] | 35 |
| CC(C)(C)c1cc(C=C(C(=O)O)c2ccc(Br)cc2)c(O)c(C(C)(C)C)c1 [Compound 6i, 2-(4-Bromophenyl)-3-(3,5-di-tert-butyl-2-hydroxyphenyl)acrylic acid] | 38 |

same assay, conditions: 50 µM, 60 min

| Structure (SMILES) | RA% 50 µM 60 min [%] |
| --- | --- |
| O=C(O)C(=Cc1ccc(OCc2ccc(Br)cc2)cc1)c1ccc(Br)cc1 [Compound 2i, 3-(4-((4-Bromobenzyl)oxy)phenyl)-2-(4-bromophenyl)acrylic acid] | 34 |
| CC(C)(C)c1cc(C=C(C(=O)O)c2ccc(Br)cc2)c(O)c(C(C)(C)C)c1 [Compound 6i, 2-(4-Bromophenyl)-3-(3,5-di-tert-butyl-2-hydroxyphenyl)acrylic acid] | 36 |

same assay, conditions: 100 µM, 20 min

| Structure (SMILES) | RA% 100 µM 20 min [%] |
| --- | --- |
| O=C(O)C(=Cc1ccc(OCc2ccc(Br)cc2)cc1)c1ccc(Br)cc1 [Compound 2i, 3-(4-((4-Bromobenzyl)oxy)phenyl)-2-(4-bromophenyl)acrylic acid] | 37 |
| CC(C)(C)c1cc(C=C(C(=O)O)c2ccc(Br)cc2)c(O)c(C(C)(C)C)c1 [Compound 6i, 2-(4-Bromophenyl)-3-(3,5-di-tert-butyl-2-hydroxyphenyl)acrylic acid] | 44 |

same assay, conditions: 100 µM, 60 min

| Structure (SMILES) | RA% 100 µM 60 min [%] |
| --- | --- |
| O=C(O)C(=Cc1ccc(OCc2ccc(Br)cc2)cc1)c1ccc(Br)cc1 [Compound 2i, 3-(4-((4-Bromobenzyl)oxy)phenyl)-2-(4-bromophenyl)acrylic acid] | 40 |
| CC(C)(C)c1cc(C=C(C(=O)O)c2ccc(Br)cc2)c(O)c(C(C)(C)C)c1 [Compound 6i, 2-(4-Bromophenyl)-3-(3,5-di-tert-butyl-2-hydroxyphenyl)acrylic acid] | 39 |

test system: not listed separately; experiment: Competition with DMSO for hydroxyl radicals (Fe3+/ascorbic acid system); type: biochemical; details: hydroxyl radical scavenging
Experimental: Competition of the novel substituted acids with DMSO for hydroxyl radicals was measured. Hydroxyl radicals were generated using the Fe^3+/ascorbic acid system and expressed as a percentage inhibition of formaldehyde production in the presence of each compound at 100 μM (Table 2). All the synthesized derivatives strongly scavenge hydroxyl radicals at 100 μM in comparison to the reference compound Trolox.
The hydroxyl radicals generated by the Fe^3+/ascorbic acid system, were detected by the determination of formaldehyde produced from the oxidation of DMSO (Table 2). Trolox was used as reference compound [17, 18, 28].

| Structure (SMILES) | HO•% 100 µM [%] |
| --- | --- |
| O=C(O)C(=Cc1ccc(OCc2ccc(Br)cc2)cc1)c1ccc(Br)cc1 [Compound 2i, 3-(4-((4-Bromobenzyl)oxy)phenyl)-2-(4-bromophenyl)acrylic acid] | 95 |
| CC(C)(C)c1cc(C=C(C(=O)O)c2ccc(Br)cc2)c(O)c(C(C)(C)C)c1 [Compound 6i, 2-(4-Bromophenyl)-3-(3,5-di-tert-butyl-2-hydroxyphenyl)acrylic acid] | 100 |

test system: not listed separately; experiment: ABTS+• decolorization assay; type: biochemical; details: 1 min, 734 nm
Experimental: No role for lipophilicity was found. Oxidation of ABTS with potassium persulfate generates directly the ABTS radical cation (ABTS^+•) with no involvement of an intermediary radical, which is then reduced upon adding electron-donating antioxidants.
In order to produce the ABTS radical cation (ABTS^+•), ABTS stock solution in water (7 mM) was mixed with potassium persulfate (2.45 mM) and left in the dark at room temperature for 12–16 h before use. Our published experimental technique was used (Table 2). The results are recorded after 1 min of the mixing solutions at 734 nm. The results were compared to the appropriate standard inhibitor Trolox.

| Structure (SMILES) | ABTS+•% 100 µM [%] |
| --- | --- |
| O=C(O)C(=Cc1ccc(OCc2ccc(Br)cc2)cc1)c1ccc(Br)cc1 [Compound 2i, 3-(4-((4-Bromobenzyl)oxy)phenyl)-2-(4-bromophenyl)acrylic acid] | 32 |
| CC(C)(C)c1cc(C=C(C(=O)O)c2ccc(Br)cc2)c(O)c(C(C)(C)C)c1 [Compound 6i, 2-(4-Bromophenyl)-3-(3,5-di-tert-butyl-2-hydroxyphenyl)acrylic acid] | 53 |

test system: not listed separately; experiment: Inhibition of linoleic acid peroxidation (AAPH); type: biochemical; details: anti-lipid peroxidation, 50 µM
Excerpt: We also used water-soluble 2,2′-[…](2-amidinopropane) hydrochloride (AAPH) for the generation of free radicals. AAPH has been extensively used as a clean and controllable source of thermally produced alkylperoxyl free radicals. The peroxyl radicals produced by the action of AAPH show total similarity to cellular activities such as lipid peroxidation. […] It seems that the presence of 3,5-di-tert-butyl-group greatly enhances protection against lipid peroxidation (6i/ii and 7i/ii followed by 3ii and 5ii). The lipid peroxidation inhibitory activity seems to be concentration dependent.
2,2’-Azobis(2-amidinopropane) dihydrochloride (AAPH) was used as a free radical initiator to start the oxidation reaction. The method was based on the production of conjugated diene hydroperoxide by oxidation of linoleic acid at 234 nm expressed as an increased absorption. Trolox was used as reference compound (93%) (Table 2).

| Structure (SMILES) | AAPH% 50 µM [%] |
| --- | --- |
| O=C(O)C(=Cc1ccc(OCc2ccc(Br)cc2)cc1)c1ccc(Br)cc1 [Compound 2i, 3-(4-((4-Bromobenzyl)oxy)phenyl)-2-(4-bromophenyl)acrylic acid] | 48 |
| CC(C)(C)c1cc(C=C(C(=O)O)c2ccc(Br)cc2)c(O)c(C(C)(C)C)c1 [Compound 6i, 2-(4-Bromophenyl)-3-(3,5-di-tert-butyl-2-hydroxyphenyl)acrylic acid] | 56 |

same assay, conditions: anti-lipid peroxidation, 100 µM

| Structure (SMILES) | AAPH% 100 µM [%] |
| --- | --- |
| O=C(O)C(=Cc1ccc(OCc2ccc(Br)cc2)cc1)c1ccc(Br)cc1 [Compound 2i, 3-(4-((4-Bromobenzyl)oxy)phenyl)-2-(4-bromophenyl)acrylic acid] | 96 |
| CC(C)(C)c1cc(C=C(C(=O)O)c2ccc(Br)cc2)c(O)c(C(C)(C)C)c1 [Compound 6i, 2-(4-Bromophenyl)-3-(3,5-di-tert-butyl-2-hydroxyphenyl)acrylic acid] | 100 |

test system: not given; experiment: not given; details: not given

| melting point [°C] | Structure (SMILES) |
| --- | --- |
| 168 to 170 | CC(C)(C)c1cc(C=C(C(=O)O)c2ccc(Br)cc2)c(O)c(C(C)(C)C)c1 [Compound 6i, 2-(4-Bromophenyl)-3-(3,5-di-tert-butyl-2-hydroxyphenyl)acrylic acid] |
